# Target: T1, human oxytocin receptor (Homo sapiens, UniProt P30559)
# T1 sequence (P30559 1-389): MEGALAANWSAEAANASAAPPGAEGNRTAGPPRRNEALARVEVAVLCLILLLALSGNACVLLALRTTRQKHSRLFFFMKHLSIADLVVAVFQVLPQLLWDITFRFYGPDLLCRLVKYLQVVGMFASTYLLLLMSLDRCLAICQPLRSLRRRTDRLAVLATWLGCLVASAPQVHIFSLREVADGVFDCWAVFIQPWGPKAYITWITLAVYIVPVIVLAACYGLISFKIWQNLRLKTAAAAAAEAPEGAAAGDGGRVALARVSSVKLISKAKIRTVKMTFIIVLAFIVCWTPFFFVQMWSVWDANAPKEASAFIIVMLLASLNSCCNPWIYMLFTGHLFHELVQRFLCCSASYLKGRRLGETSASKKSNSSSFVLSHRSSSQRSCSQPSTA
# Assay: Oxytocin binding in CHO cell membranes expressing human oxytocin receptors
# Details: 100 nM, [3H]oxytocin
# Description: Oxytocin Binding in Chinese Hamster Ovary Cell Membranes Expressing Human Oxytocin Receptors
# Chinese Hamster Ovary (CHO) cells stably transfected with the human oxytocin receptor (cf. Tanizawa et al., U.S. Pat. No. 5,466,584 (1995) to Rohto Pharmaceutical Co. Ltd., Osaka, Japan) were obtained from M. Thibonnier, Case Western Reserve University School of Medicine, Cleveland, Ohio. A. Passaging and Amplification of Cells: CHO cells transfected with the human oxytocin receptors obtained from M. Thibonnier (pcDNA3.1 vector) are allowed to grow to confluency (approx. >90%) in T-150 flasks under sterile conditions, in a cell culture medium of F-12 Nutrient Mixture (HAM) with L-glutamine (Gibco Cat. # 11765-054) containing 15 mM HEPES (Gibco Cat. # 15630-080), 1% antibiotic/antimycotic (add 5 mL 100×, Gibco Cat. # 15240-062 per 500 mL F-12), 400 μg/mL of Geneticin (add 4 mL of 50 mg/mL per 500 mL F-12) and 10% Fetal Bovine Serum (Qualified, heat inactivated, Gibco Cat. # 16140-063). The medium is removed by aspiration and the cells are washed with 10 mL of Hank's Balanced Salt solution (Gibco Cat. # 14175-095). The salt solution is removed by aspiration and the cells trypsinized with 5 mL of trypsin-EDTA (0.05% trypsin, 0.53 mM EDTA-4Na, Gibco Cat. # 25300-070) for 1 min The trypsin is removed by aspiration and the cells dislodged by tapping. Cell Culture medium (e.g. 30 mL for 1:30 split) is immediately added and mixed well to inactivate trypsin. 1 mL of detached cells is added to new culture flasks containing fresh Cell Culture medium (e.g. into 25 mL per T-150 flask), and mixed gently. The cells are incubated at 37° C. in 5% CO2. The medium is changed at 3 to 4 days interval (or as appropriate). The cells grow to confluency (approx. >75%–95%) within 7–8 days. All steps are done under sterile conditions. B. Membrane Preparation: The cells are washed twice gently with Hank's Balanced Salt solution (eg, use 10 mL per T-150 flask). The excess solution is removed and the cells bathed for 15–30 min. in an enzyme-free Cell Dissociation Buffer (eg, use 8 mL Hank's Based, Gibco Cat. # 13150-016 per T-150 flask) until cells are loosened. The contents are transferred to centrifuge tubes (50 mL size) kept in ice bath. All subsequent steps are done at 4° C. The tubes are centrifuged at 300×g for 15 min (1380 rpm on SORVAL, Model RT6000D, using rotor for 50 mL tubes). The supernatant is discarded and the cells suspended in homogenizing buffer (10 mM Tris-HCl containing 0.25 M sucrose and 1 mM EDTA, pH 7.4) ensuring that the volume of the buffer is about ten times the volume of the cell pellet. The cells are pooled into a centrifuge tube (50 mL) and homogenized with a Polytron at setting 6 for 10 sec. The homogenate is transferred into a Potter-Elvjehm homogenizer and homogenized with 3 strokes. The homogenate is centrifuged at 1500×g for 10 min at 4° C. (3100 rpm using SORVAL, model RT6000D, using rotor for 50 mL tubes). The pellet is discarded. The supernatant is centrifuged at 100,000×g for 60 min. at 4° C. (Beckman L8-80M ultracentrifuge; spin at 37,500 rpm with rotor type 70 Ti for 50 mL tubes; 38,000 rpm with type 80Ti for 15 mL tubes; or 35,800 rpm with rotor type 45Ti). The supernantant is discarded and the pellet suspended in 3 to 4 mL of Tris buffer (50 mM TRIS-HCl, pH 7.4). The protein content is estimated by the Bradford or Lowry method. The volume of the membrane suspension is adjusted with the membrane buffer (50 mM Tris-HCl containing 0.1% BSA and 0.1 mM PMSF) to give 3.0 mg/mL (or as appropriate) of protein. The membranes are aliquoted and stored at −70° C. C. Radioligand Binding Assay: In wells of a 96-well format microtiter plate, is added 90, 110 or 130 μL (to make up a final volume of 200 μL) of assay buffer containing 50 mM of Tris-HCl (pH 7.4), […], 1 mg % aprotinin, 1 mg % leupeptin, 2 mg % 1,10-phenanthroline, 10 mg % trypsin inhibitor, and 0.1 mM PMSF. […]
row,OT % inhibition at 100 nM [%],SMILES
1,89,"O=C(C(=O)N1CCC(N2CCCCC2)CC1)c1ccc2n1Cc1ccccc1N(C(=O)c1ccc(C3CCCCC3)cc1)C2 [Example 31, 1-[1.4′]Bipiperidinyl-1′-yl-2-[10-(4-cyclohexyl-benzoyl)-10,11-dihydro-5H-pyrrolo[2,1-c][1,4]benzodiazepin-3-yl]-ethane-1,2-dione]"
2,87,"CN1CCN(C(=O)C(=O)c2ccc3n2Cc2ccccc2N(C(=O)c2ccc(C4CCCCC4)cc2)C3)CC1 [Example 32, 1-[10-(4-Cyclohexyl-benzoyl)-10,11-dihydro-5H-pyrrolo[2,1-c][1,4]benzodiazepin-3-yl]-2-(4-methyl-1-piperazin-1-yl)-1,2-ethane-1,2-dione]"

# Same assay, conditions: 100 nM, [3H]oxytocin, read-out: OT % inhibition at 100 nM
row,SMILES,inhibition at 0.1 µM [%]
1,"Cc1ccccc1N1CCN(C(=O)c2ccc3n2Cc2ccccc2N(C(=O)c2ccc(C4CCCCC4)cc2)C3)CC1 [Example 27, [10-(4-Cyclohexyl-benzoyl)-10,11-dihydro-5H-pyrrolo[2,1-c][1,4]benzodiazepin-3-yl][4-(2-methylphenyl)-1-piperazinyl]-methanone]",44
2,"COc1ccc(NC(=O)c2ccc3n2Cc2ccccc2N(C(=O)c2ccc(C4CCCCC4)cc2)C3)cc1 [Example 29, 10-(4-Cyclohexyl-benzoyl)-10,11-dihydro-5H-pyrrolo[2,1-c][1,4]benzodiazepine-3-carboxylic acid (4-methoxy-phenyl)-amide]",42
3,"CN1CCCN(C(=O)c2ccc3n2Cc2ccccc2N(C(=O)c2ccc(C4CCCCC4)cc2)C3)CC1 [Example 30, [10-(4-Cyclohexyl-benzoyl)-10,11-dihydro-5H-pyrrolo[2,1-c][1,4]benzodiazepin-3-yl](4-methyl-[1,4]-diazepan-1-yl)-methanone]",94
4,"CN(C)CCCNC(=O)c1ccc2n1Cc1ccccc1N(C(=O)c1ccc(C3CCCCC3)cc1)C2 [Example 33, 10-(4-Cyclohexyl-benzoyl)-N-[3-(dimethylamino)propyl]-10,11-dihydro-5H-pyrrolo[2,1-c][1,4]benzodiazepine-3-carboxamide]",66
5,"CN(C)CCN(C)C(=O)c1ccc2n1Cc1ccccc1N(C(=O)c1ccc(C3CCCCC3)cc1)C2 [Example 34, 10-(4-Cyclohexyl-benzoyl)-N-[2-(dimethylamino)-ethyl]-N-methyl-10,11-dihydro-5H-pyrrolo[2,1-c][1,4]benzodiazepine-3-carboxamide]",-5

# Second part, the molecule after the results:
row,inhibition at 0.1 µM [%],SMILES
1,55,"CN(C)CCCN(C)C(=O)c1ccc2n1Cc1ccccc1N(C(=O)c1ccc(C3CCCCC3)cc1)C2 [Example 35, 10-(4-Cyclohexyl-benzoyl)-N-[3-(dimethylamino)propyl]N-methyl-10,11-dihydro-5H-pyrrolo[2,1-c][1,4]benzodiazepine-3-carboxamide]"
2,13,"O=C(NCCCn1ccnc1)c1ccc2n1Cc1ccccc1N(C(=O)c1ccc(C3CCCCC3)cc1)C2 [Example 36, 10-(4-Cyclohexyl-benzoyl)-N-[3-(1H-imidazol-1-yl)propyl]-10,11-dihydro-5H-pyrrolo[2,1-c][1,4]benzodiazepine-3-carboxamide]"
3,61,"O=C(NCCN1CCCCC1)c1ccc2n1Cc1ccccc1N(C(=O)c1ccc(C3CCCCC3)cc1)C2 [Example 37, 10-(4-Cyclohexyl-benzoyl)-N-[2-(1-piperidinyl)ethyl]-10,11-dihydro-5H-pyrrolo[2,1-c][1,4]benzodiazepine-3-carboxamide]"
4,57,"CN1CCCC1CCNC(=O)c1ccc2n1Cc1ccccc1N(C(=O)c1ccc(C3CCCCC3)cc1)C2 (stereo not shown) [Example 38, 10-(4-Cyclohexyl-benzoyl)-N-[2-(1-methyl-2-pyrrolidinyl)ethyl]-10,11-dihydro-5H-pyrrolo[2,1-c][1,4]benzodiazepine-3-carboxamide]"
5,85,"CN1CCC(N(C)C(=O)c2ccc3n2Cc2ccccc2N(C(=O)c2ccc(C4CCCCC4)cc2)C3)CC1 [Example 39, 10-(4-Cyclohexyl-benzoyl)-N-methyl-N-(1-methyl-4-piperidinyl)-10,11-dihydro-5H-pyrrolo[2,1-c][1,4]benzodiazepine-3-carboxamide]"
6,60,"CN1CCC(N(C)C(=O)c2ccc3n2Cc2ccccc2N(C(=O)c2ccc(C4CCCCC4)cc2)C3)C1 (stereo not shown) [Example 40, 10-(4-Cyclohexyl-benzoyl)-N-methyl-N-(1-methyl-3-pyrrolidinyl)-10,11-dihydro-5H-pyrrolo[2,1-c][1,4]benzodiazepine-3-carboxamide]"
7,31,"CN(C)CCN1CCN(C(=O)c2ccc3n2Cc2ccccc2N(C(=O)c2ccc(C4CCCCC4)cc2)C3)CC1 [Example 41, [10-(4-Cyclohexyl-benzoyl)-10,11-dihydro-5H-pyrrolo[2,1-c][1,4]benzodiazepin-3-yl]{4-[2-(dimethylamino)ethyl]-1-piperazinyl}methanone]"
8,65,"O=C(c1ccc2n1Cc1ccccc1N(C(=O)c1ccc(C3CCCCC3)cc1)C2)N1CCN(CCN2CCOCC2)CC1 [Example 42, [10(4-Cyclohexyl-benzoyl)-10,11-dihydro-5H-pyrrolo[2,1-c][1,4]benzodiazepin-3-yl]{4-[2-(4-morpholinyl)ethyl]-1-piperazinyl}methanone]"
9,1,"C=CCN1CCN(C(=O)c2ccc3n2Cc2ccccc2N(C(=O)c2ccc(C4CCCCC4)cc2)C3)CC1 [Example 43, (4-Allyl-1-piperazinyl)[10-(4-cyclohexyl-benzoyl)-10,11-dihydro-5H-pyrrolo[2,1-c][1,4]benzodiazepin-3-yl]methanone]"

# Same assay, conditions: [3H]oxytocin, value in parentheses, read-out: OT (IC50)
row,IC50 [nM],SMILES
1,13.2,"O=C(c1ccc2n1Cc1ccccc1N(C(=O)c1ccc(C3CCCCC3)cc1)C2)N1CCC(N2CCCC2)CC1 [Example 25, [10-(4-Cyclohexyl-benzoyl)-10,11-dihydro-5H-pyrrolo[2,1-c][1,4]benzodiazepin-3-yl][4-(1-pyrrolidinyl)-1-piperidinyl]methanone]"
2,19.7,"O=C(c1ccc2n1Cc1ccccc1N(C(=O)c1ccc(C3CCCCC3)cc1)C2)N1CCC(N2CCCCC2)CC1 [Example 26, [1,4′]Bipiperidinyl-1′-yl-[10-(4-cyclohexyl-benzoyl)-10,11-dihydro-5H-pyrrolo[2,1-c][1,4]benzodiazepin-3-yl]-methanone]"
3,111,"O=C(c1ccc2n1Cc1ccccc1N(C(=O)c1ccc(C3CCCCC3)cc1)C2)N1CCN(c2ccccn2)CC1 [Example 28, [10-(4-Cyclohexyl-benzoyl)-10,11-dihydro-5H-pyrrolo[2,1-c][1,4]benzodiazepine 3-yl][4-(2-pyridinyl)-1-piperazinyl]-methanone]"
